Source: paper PMC7887271, “Fast acting allosteric phosphofructokinase inhibitors block trypanosome glycolysis and cure acute African trypanosomiasis in mice” (Nature Communications, 2021)
Values joined by “and” are separate entries in the source; they are usually repeats but may differ in a detail not shown here. Equal values may be shown once.

Tests used:
T. b. brucei GVR35-Luc2 = T. b. brucei GVR35-Luc2 time-to-kill assay (luciferin); assay type: cell-based; conditions: for Luminescence, Average / Luminescence, individual replicates: Time to kill assay for GVR35 cells
Method: Enzyme activity was measured using an aldolase/TIM linked assay at 25 °C. […] Experiments were carried out in duplicate. Data are presented as mean values ± standard deviation. […] Source data are provided as a Source Data File. b Kill time of CTCB-405 compared with existing HAT drugs in the clinic. […] Over 99% of trypanosomes were killed in under 30 min compared with much slower killing rates for the other drugs. The points on the graph for CTCB-405 were determined from two independent biological replicate experiments with each time point measured twice (using duplicate technical replicates). The ESD for each point on the graph is between 0.7 and 1.4%. For drugs in clinical use each point on the graph is the average of two technical replicates from one experiment (with a maximum difference of 7.8% for any of the points). Source data are provided as a Source Data File.
As predicted from the biology of the BSF that relies wholly on glycolysis for ATP production, inhibition of the pathway results in a very fast TTK. Two experimental methods were used to measure ATP levels as a real-time indicator of viability. For Tb427 parasites, a Cell Titre Glo kit was used and for the TbGVR35 bioluminescent strain, killing was assessed by adding luciferin which requires ATP to produce a luminescent signal (Supplementary Methods 4.3 and 4.4). […] The BSF of T. brucei cannot produce ATP by oxidative phosphorylation and is solely dependent on flux through the glycolytic pathway. The clear correlation between inhibitor dose and reduction in ATP production, as observed in the TTK assays strongly supports the proposed mode of action of the CTCB compounds is by blocking glycolysis. It is a long-established experimental observation that withdrawal of glucose nutrient leads to rapid loss of motility and cell death. It has recently been shown that the BSF of T. brucei can proliferate on high levels of glycerol; however, we have shown that addition of glycerol to the medium has little effect on parasite killing by the CTCB compounds (Supplementary Table 3).
The killing of T. b. brucei GVR35-Luc2 was assessed by adding D-luciferin to live cells resulting in the production of light in the presence of ATP and luciferase activity. Compounds of interest were serially diluted from 16 µM to 0.5 µM in Modified HMI-9 medium and added into sterile white, flat bottom 96-well plate (Greiner Inc.). 32,000 trypanosomes were added to each well. The plates were incubated at 37 °C and 5% CO2. At the end of each incubation, 200 µg/ml of D-luciferin was added to each well and incubated for 10 min. Luminescence was measured using a BMG plate reader and percentage cell viability versus incubation time was determined.

T. b. brucei GVR35-luc = assay: Wash-out studies, GVR35; assay type: cell-based; conditions: concentrations greater than 2 to 4 µM, exposure longer than 4-6 hours, 3 days in drug free medium
Method: In vitro ‘wash-out’ studies were performed to determine the reversibility of the action of the CTCB compounds on trypanosomes, after a certain exposure time, and thus to assess whether the compounds have a trypanocidal or trypanostatic effect. These experiments were carried out with both the T. b. brucei Lister 427 and T. b. brucei GVR35-luc strains. Trypanosomes at a density of 500,000 cells/ml in culture medium were incubated with CTCB compounds at varying concentrations in 12-well plates in volumes of 1 ml for different periods of time at 37°C. Subsequently, the cultures were centrifuged for 5 min at 2600 x g, the cells washed by re-suspending the pellets in 1 ml medium without inhibitors, centrifuged again and re-suspended in 1 ml fresh medium. The cell suspensions were then incubated under regular culture conditions for 3 days and parasite growth monitored daily by light microscopy.
The results for both strains are similar with no grow-back at concentrations of CTCB compounds greater than 2 to 4 µM with drug exposure longer than 4-6 hours.

MDCK-MDR1 = conditions: dog
T. b. brucei Lister 427 = assay: Wash-out studies, Lister 427; assay type: cell-based; conditions: concentrations greater than 2 to 4 µM, exposure longer than 4-6 hours, 3 days in drug free medium
Method: In order to estimate a killing-dose for in vivo trials, a series of washout experiments were carried out: parasites were incubated with a given concentration of compound before washing out the drug and determining whether the parasites were still viable and able to proliferate. […] The existence of a small population of parasites more resistant to the effects of the CTCB compounds might be explained by subpopulations of parasites being present at different stages of the cell cycle. The parasite cultures used in the killing experiments are not synchronised, and it is likely that ATP requirement varies depending on cell cycle phase and a subpopulation with lower ATP requirement may be less susceptible to the CTCB compounds, however, this phenomenon needs further investigation.
In vitro ‘wash-out’ studies were performed to determine the reversibility of the action of the CTCB compounds on trypanosomes, after a certain exposure time, and thus to assess whether the compounds have a trypanocidal or trypanostatic effect. These experiments were carried out with both the T. b. brucei Lister 427 and T. b. brucei GVR35-luc strains. […] The cell suspensions were then incubated under regular culture conditions for 3 days and parasite growth monitored daily by light microscopy. […]

[1] = GVR35 TTK, 24 h incubation, replicate wells

For CN(C)CCn1ccc2c(ccn2Cc2ccc(Cl)c(Cl)c2)c1=O [CTCB-405, 1-[(3,4-Dichlorophenyl)methyl]-5-[2-(dimethylamino)ethyl] pyrrolo[3,2-c]pyridin-4-one], the “trypanosomes killed in under 30 min” value (T. b. brucei GVR35-Luc2; 4 µM, GVR35 bioluminescent strain) was “Over 99%”, the “% Cell viability, single replicates” value (T. b. brucei GVR35-Luc2; 0.5 h) was 0.291% and 2.73% and the “% Inhibition, single replicates” value (T. b. brucei GVR35-Luc2; 0.5 h) was 100% and 97%. For the same molecule, the “% Cell viability” value (T. b. brucei GVR35-Luc2; 0.5 h, average) was 1.49% and 1.51%, the “% Inhibition” value (T. b. brucei GVR35-Luc2; 0.5 h, mean, suramin, fexinidazole, SCYX-7158 11 µM, CTCB-405 4 µM) was 99% and the “% Cell viability, single replicates” value (T. b. brucei GVR35-Luc2; 1 h) was -0.108% and -1%. The “% Inhibition, single replicates” value (T. b. brucei GVR35-Luc2; 1 h) was 100% and 101%, the “% Inhibition” value (T. b. brucei GVR35-Luc2; 1 h, mean, suramin, fexinidazole, SCYX-7158 11 µM, CTCB-405 4 µM) was 101% and the “% Cell viability, single replicates” value (T. b. brucei GVR35-Luc2; 2 h) was -0.773% and 0.055%. For the same molecule, the “% Inhibition, single replicates” value (T. b. brucei GVR35-Luc2; 2 h) was 101% and 100%, the “% Cell viability” value (T. b. brucei GVR35-Luc2; 2 h, average) was -0.345% and -0.359% and the “% Inhibition” value (T. b. brucei GVR35-Luc2; 2 h, mean, suramin, fexinidazole, SCYX-7158 11 µM, CTCB-405 4 µM) was 100%. For the same molecule, the “% Cell viability, single replicates” value (T. b. brucei GVR35-Luc2; 4 h) was -0.741% and -0.843%, the “% Inhibition, single replicates” value (T. b. brucei GVR35-Luc2; 4 h) was 101% and the “% Cell viability” value (T. b. brucei GVR35-Luc2; 4 h, average) was -0.791% and 0% and -0.792%. For the same molecule, the “% Inhibition” value (T. b. brucei GVR35-Luc2; 4 h, mean, suramin, fexinidazole, SCYX-7158 11 µM, CTCB-405 4 µM) was 101%, the “% Cell viability, single replicates” value (T. b. brucei GVR35-Luc2; 6 h) was -0.633% and -0.494% and the “% Inhibition, single replicates” value (T. b. brucei GVR35-Luc2; 6 h) was 101% and 100%. The “% Cell viability” value (T. b. brucei GVR35-Luc2; 6 h, average) was -0.563% and -0.564%, the “% Inhibition” value (T. b. brucei GVR35-Luc2; 6 h, mean, suramin, fexinidazole, SCYX-7158 11 µM, CTCB-405 4 µM) was 101% and the “% Cell viability, single replicates” value (T. b. brucei GVR35-Luc2; 8 h) was -0.333% and -0.376%. The “% Inhibition, single replicates” value (T. b. brucei GVR35-Luc2; 8 h) was 100%, the “% Cell viability” value (T. b. brucei GVR35-Luc2; 8 h, average) was -0.354% and the “% Inhibition” value (T. b. brucei GVR35-Luc2; 8 h, mean, suramin, fexinidazole, SCYX-7158 11 µM, CTCB-405 4 µM) was 100%. For the same molecule, the “% Cell viability, Average” value (T. b. brucei GVR35-Luc2; GVR35 TTK, 24 h incubation, average) was -0.0941%, the “Luminescence (medium-subtracted), Average” value (T. b. brucei GVR35-Luc2; GVR35 TTK, 24 h incubation, average of replicates) was -1 and the “% Inhibition” value (T. b. brucei GVR35-Luc2; GVR35 TTK, 24 h incubation, from average) was 100%. The “% Cell viability, individual replicates” value (T. b. brucei GVR35-Luc2; [1]) was -0.0906% and -0.0976%, the “% Inhibition, individual replicates” value (T. b. brucei GVR35-Luc2; [1]) was 100% and the “Luminescence (medium-subtracted), individual replicates” value (T. b. brucei GVR35-Luc2; [1]) was -8.5 and 6.5. The “% Cell viability” value (T. b. brucei GVR35-Luc2; GVR35 TTK, 24 h sheet, summary line marked "4") was -0.0937%, the “Luminescence, Average” value (T. b. brucei GVR35-Luc2; 0.5 hour incubation) was 184 and the “Luminescence, individual replicates” value (T. b. brucei GVR35-Luc2; 0.5 hour incubation) was 76 and 293. For the same molecule, the “Luminescence, Average” value (T. b. brucei GVR35-Luc2; 1hour incubation) was 41, the “Luminescence, individual replicates” value (T. b. brucei GVR35-Luc2; 1hour incubation) was 96 and -14 and the “Luminescence, Average” value (T. b. brucei GVR35-Luc2; 2hour incubation) was 40. For the same molecule, the “Luminescence, individual replicates” value (T. b. brucei GVR35-Luc2; 2hour incubation) was -17 and 96, the “Luminescence, Average” value (T. b. brucei GVR35-Luc2; 4hour incubation) was -33 and the “Luminescence, individual replicates” value (T. b. brucei GVR35-Luc2; 4hour incubation) was -26 and -40. The “Luminescence, Average” value (T. b. brucei GVR35-Luc2; 6hour incubation) was -24, the “Luminescence, individual replicates” value (T. b. brucei GVR35-Luc2; 6hour incubation) was -47 and -1 and the “Luminescence, Average” value (T. b. brucei GVR35-Luc2; 8hour incubation) was 13. The “Luminescence, individual replicates” value (T. b. brucei GVR35-Luc2; 8hour incubation) was 20 and 6, the “Luminescence, Average” value (T. b. brucei GVR35-Luc2; 24hour incubation) was -1 and the “Luminescence, individual replicates” value (T. b. brucei GVR35-Luc2; 24hour incubation) was -8.5 and 6.5. For the same molecule, the “wash-out: grow-back after removal of drug” value (T. b. brucei GVR35-luc) was “no grow-back”, the “MDCK-MDR1 A-B” value (MDCK-MDR1) was 17.6 and the “MDCK-MDR1 B-A” value (MDCK-MDR1) was 17.2. For the same molecule, the “wash-out: grow-back after removal of drug” value (T. b. brucei Lister 427) was “no grow-back”.
